The source of these data is patent US8022206B2 (OSI Pharmaceuticals, LLC, priority 2008, dated 2011).

Where only a bound is given, the exact number is not on record here.

RON (human), sequence (Q04912 25-1400): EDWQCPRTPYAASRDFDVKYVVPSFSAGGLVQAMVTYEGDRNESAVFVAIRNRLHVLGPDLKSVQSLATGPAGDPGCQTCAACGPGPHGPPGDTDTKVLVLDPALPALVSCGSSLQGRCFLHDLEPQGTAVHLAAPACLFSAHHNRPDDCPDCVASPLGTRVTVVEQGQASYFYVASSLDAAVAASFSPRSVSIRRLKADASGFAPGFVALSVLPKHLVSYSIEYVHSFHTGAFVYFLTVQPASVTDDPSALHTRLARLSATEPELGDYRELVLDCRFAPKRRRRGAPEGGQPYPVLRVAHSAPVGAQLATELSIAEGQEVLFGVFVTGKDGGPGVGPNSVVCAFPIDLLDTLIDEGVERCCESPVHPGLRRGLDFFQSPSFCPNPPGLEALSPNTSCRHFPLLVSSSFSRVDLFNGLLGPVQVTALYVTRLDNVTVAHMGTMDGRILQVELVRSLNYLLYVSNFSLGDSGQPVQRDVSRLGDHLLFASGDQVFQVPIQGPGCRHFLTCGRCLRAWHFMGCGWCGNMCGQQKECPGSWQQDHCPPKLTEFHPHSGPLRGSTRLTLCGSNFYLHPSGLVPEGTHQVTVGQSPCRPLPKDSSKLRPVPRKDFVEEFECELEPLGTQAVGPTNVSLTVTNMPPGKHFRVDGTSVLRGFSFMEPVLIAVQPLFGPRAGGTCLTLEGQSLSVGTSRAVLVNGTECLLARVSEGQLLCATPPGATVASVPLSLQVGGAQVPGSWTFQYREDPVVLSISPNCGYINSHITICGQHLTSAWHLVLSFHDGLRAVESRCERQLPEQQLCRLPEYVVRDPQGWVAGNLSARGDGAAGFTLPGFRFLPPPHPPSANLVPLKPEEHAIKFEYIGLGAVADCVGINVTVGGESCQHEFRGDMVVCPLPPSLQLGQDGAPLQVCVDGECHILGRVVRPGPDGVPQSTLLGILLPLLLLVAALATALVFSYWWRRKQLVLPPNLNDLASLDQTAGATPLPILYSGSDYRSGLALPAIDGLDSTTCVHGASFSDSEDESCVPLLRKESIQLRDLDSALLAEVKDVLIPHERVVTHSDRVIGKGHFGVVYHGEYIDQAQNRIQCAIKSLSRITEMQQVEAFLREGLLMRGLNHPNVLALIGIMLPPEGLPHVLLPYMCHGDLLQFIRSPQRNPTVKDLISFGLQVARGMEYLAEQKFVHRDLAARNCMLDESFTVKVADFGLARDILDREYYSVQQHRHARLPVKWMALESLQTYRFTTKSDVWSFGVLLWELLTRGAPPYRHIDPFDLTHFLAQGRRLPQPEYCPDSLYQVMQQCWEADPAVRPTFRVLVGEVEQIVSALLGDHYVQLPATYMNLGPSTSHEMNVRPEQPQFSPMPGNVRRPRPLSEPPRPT

The experiment addresses RON (human) (Homo sapiens, UniProt Q04912). As to the kind of experiment: RON (human) AlphaScreen kinase assay, Km of ATP. Particulars: AlphaScreen, Km of ATP; read-out: RON biochemical IC50. It counts as biochemical. As for the experimental part: Someone skilled in the art will appreciate that a variety of assay formats may be used to determine the activity of the compounds of this invention. For example, AlphaScreen (Amplified Luminescent Proximity Homogeneous Assay) technology was used with the kinases described below. Assay ATP concentrations for individual kinases are included in the text.
Desired compound is added in a final concentration of 1% DMSO with control being vehicle of DMSO alone. […] Enzyme is added to initiate the reaction and incubated for 30 min at RT. In subdued light, appropriate amount of PT66 donor and acceptor beads (diluted 1:260 from manufacturer's provision in a 25 mM Tris HCl (pH=7.5), 200 mM NaCl, 100 mM EDTA, 0.3% BSA buffer) are added to the wells. The plates, incubated for 1 h, are read on an AlphaQuest plate reader.
On to `C[C@@H](Oc1c(N)ncc2c(-c3cn[nH]c3)coc12)c1c(Cl)ccc(F)c1Cl` [Example 6, 7-[(R)-1-(2,6-Dichloro-3-fluorophenyl)ethoxy]-3-(1H-pyrazol-4-yl)-furo[3,2-c]pyridin-6-ylamine], for which the IC50 lay in the range of 0.5 to 5 µM. For `CC(Oc1c(N)ncc2c(-c3cnn(C4CCNCC4)c3)coc12)c1c(Cl)c(F)cc(F)c1Cl` (stereo not drawn) [Example 154, 7-[1-(2,6-Dichloro-3,5-difluorophenyl)ethoxy]-3-[1-(piperidin-4-yl)-1H-pyrazol-4-yl]furo[3,2-c]pyridin-6-amine], the IC50 was under 0.5 µM. For `C[C@@H](Oc1c(N)ncc2c(C3=CCN(S(N)(=O)=O)CC3)coc12)c1c(Cl)ccc(F)c1Cl` [Example 141, 4-{6-Amino-7-[(1R)-1-(2,6-dichloro-3-fluorophenyl)ethoxy]furo[3,2-c]pyridin-3-yl}-3,6-dihydropyridine-1(2H)-sulfonamide] the value was 0.5 to 5 µM. For `C#CCC(Oc1c(N)ncc2c(-c3cnn(C4CCNCC4)c3)coc12)c1c(Cl)ccc(F)c1Cl` (stereo not drawn) [Example 353, 7-[1-(2,6-Dichloro-3-fluorophenyl)but-3-ynyloxy]-3-(1-piperidin-4-yl-1H-pyrazol-4-yl)furo[3,2-c]pyridin-6-ylamine] the value was 0.5 to 5 µM; for `CC(Oc1c(N)ncc2c(-c3cnn(C4CCNCC4)c3)coc12)c1c(Cl)cc(Cl)cc1Cl` (stereo not drawn) [Example 364, 3-(1-Piperidin-4-yl-1H-pyrazol-4-yl)-7-[1-(2,4,6-trichlorophenyl)-ethoxy]furo[3,2-c]pyridin-6-ylamine], under 0.5 µM; for `C[C@@H](Oc1c(N)ncc2c(C3=CCN(C(=O)N(C)C)CC3)coc12)c1c(Cl)ccc(F)c1Cl` [Example 26, 4-{6-Amino-7-[(R)-1-(2,6-dichloro-3-fluorophenyl)-ethoxy]-furo[3,2-c]pyridin-3-yl}-3,6-dihydro-2H-pyridine-1-carboxylic acid Dimethylamide], 0.5 to 5 µM. As for `C[C@@H](Oc1c(N)ncc2c(-c3ccncc3)coc12)c1c(Cl)ccc(F)c1Cl` [Example 127, 7-[(R)-(2,6-Dichloro-3-fluorophenyl)ethoxy]-3-pyridin-4-ylfuro[3,2-c]pyridin-6-ylamine], the IC50 lay in the range of 0.5 to 5 µM. As for `CC(Oc1c(N)ncc2c(-c3cnn(C4CCNCC4)c3)coc12)c1c(Cl)ccc(Cl)c1Cl` (stereo not drawn) [Example 349, 3-(1-Piperidin-4-yl-1H-pyrazol-4-yl)-7-[1-(2,3,6-trichlorophenyl)-ethoxy]furo[3,2-c]pyridin-6-ylamine], the figure is under 0.5 µM. As for `C=CCC(Oc1c(N)ncc2c(-c3cnn(C4CCNCC4)c3)coc12)c1c(Cl)ccc(F)c1Cl` (stereo not drawn) [Example 358, 7-[1-(2,6-Dichloro-3-fluorophenyl)but-3-enyloxy]-3-(1-piperidin-4-yl-1H-pyrazol-4-yl)furo[3,2-c]pyridin-6-ylamine], the figure is under 0.5 µM. Take `CC(Oc1c(N)ncc2c(-c3cnn(C4CCNCC4)c3)coc12)c1cccc(F)c1Cl` (stereo not drawn) [Example 351, 7-[1-(2-Chloro-3-fluorophenyl)ethoxy]-3-(1-piperidin-4-yl-1H-pyrazol-4-yl)-furo[3,2-c]pyridin-6-ylamine]: the IC50 lay within 0.5 to 5 µM.

As for `CNC(=O)c1coc2c(O[C@H](C)c3c(Cl)ccc(F)c3Cl)c(N)ncc12` [Example 178, 6-Amino-7-[(R)-1-(2,6-dichloro-3-fluorophenyl)ethoxy]furo[3,2-c]pyridine-3-carboxylic acid methylamide], the IC50 fell in the range of 0.5 to 5 µM. As to `CC(=O)N1CCC(n2cc(-c3coc4c(O[C@H](C)c5c(Cl)ccc(F)c5Cl)c(N)ncc34)cn2)CC1` [Example 276, 1-[4-(4-{6-Amino-7-[(1R)-1-(2,6-dichloro-3-fluorophenyl)ethoxy]furo[3,2-c]pyridin-3-yl}-1H-pyrazol-1-yl)piperidin-1-yl]ethanone], the IC50 was 0.5 to 5 µM.

For `CCC(Oc1c(N)ncc2c(-c3cnn(C4CCNCC4)c3)coc12)c1c(Cl)ccc(F)c1Cl` (stereo not drawn) [Example 350], the IC50 is under 0.5 µM. For `CCCC(Oc1c(N)ncc2c(-c3cnn(C4CCNCC4)c3)coc12)c1c(Cl)ccc(F)c1Cl` (stereo not drawn) [Example 357, 7-[1-(2,6-Dichloro-3-fluorophenyl)butoxy]-3-(1-piperidin-4-yl-1H-pyrazol-4-yl)furo[3,2-c]pyridin-6-ylamine] the value was under 0.5 µM; for `Nc1ncc2c(-c3cnn(C4CCNCC4)c3)coc2c1OCc1c(Cl)ccc(F)c1Cl` [Example 339, 7-(2,6-Dichloro-3-fluorobenzyloxy)-3-(1-piperidin-4-yl-1H-pyrazol-4-yl)-furo[3,2-c]pyridin-6-ylamine], 0.5 to 5 µM; for `C[C@@H](Oc1c(N)ncc2c(C3CCNCC3)coc12)c1c(Cl)ccc(F)c1Cl` [Example 25, 7-[(R)-1-(2,6-Dichloro-3-fluorophenyl)-ethoxy]-3-piperidin-4-yl-furo[3,2-c]pyridin-6-ylamine], 0.5 to 5 µM. For `CNC(=O)N1CC=C(c2coc3c(O[C@H](C)c4c(Cl)ccc(F)c4Cl)c(N)ncc23)CC1` [Example 35, 4-{6-Amino-7-[(R)-1-(2,6-dichloro-3-fluorophenyl)-ethoxy]-furo[3,2-c]pyridin-3-yl}-3,6-dihydro-2H-pyridine-1-carboxylic acid methylamide] the value was 0.5 to 5 µM; for `COC(=O)N1CC=C(c2coc3c(O[C@H](C)c4c(Cl)ccc(F)c4Cl)c(N)ncc23)CC1` [Example 50, 4-{6-Amino-7-[(R)-1-(2,6-dichloro-3-fluorophenyl)-ethoxy]-furo[3,2-c]pyridin-3-yl}-3,6-dihydro-2H-pyridine-1-carboxylic acid methyl ester], 0.5 to 5 µM; for `C[C@@H](Oc1c(N)ncc2c(-c3ccccn3)coc12)c1c(Cl)ccc(F)c1Cl` [Example 137, 7-[(R)-1-(2,6-Dichloro-3-fluorophenyl)-ethoxy]-3-pyridin-2-ylfuro[3,2-c]pyridin-6-ylamine], 0.5 to 5 µM. As for `C[C@@H](Oc1c(N)ncc2c(-c3ccccc3)coc12)c1c(Cl)ccc(F)c1Cl` [Example 3, 7-[(R)-1-(2,6-dichloro-3-fluorophenyl)-ethoxy]-3-phenyl-furo[3,2-c]pyridin-6-ylamine], the figure is 0.5 to 5 µM; as for `CC(Oc1c(N)ncc2c(-c3cnn(C4CCNCC4)c3)coc12)c1cc(F)ccc1Cl` (stereo not drawn) [Example 336, 7-[1-(2-Chloro-5-fluorophenyl)ethoxy]-3-(1-piperidin-4-yl-1H-pyrazol-4-yl)-furo[3,2-c]pyridin-6-ylamine], 0.5 to 5 µM; as for `C[C@@H](Oc1c(N)ncc2c(C3=CCNCC3)coc12)c1c(Cl)ccc(F)c1Cl` [Example 8, 7-[(R)-1-(2,6-Dichloro-3-fluorophenyl)ethoxy]-3-(1,2,3,6-tetrahydropyridin-4-yl)-furo[3,2-c]pyridin-6-ylamine], 0.5 to 5 µM. In the case of `C[C@@H](Oc1c(N)ncc2c(-c3cccnc3)coc12)c1c(Cl)ccc(F)c1Cl` [Example 126, 7-[(R)-(2,6-Dichloro-3-fluorophenyl)ethoxy]-3-pyridin-3-ylfuro[3,2-c]pyridin-6-ylamine], the IC50 lay within 0.5 to 5 µM.

In the case of `CC(=O)N1CC=C(c2coc3c(O[C@H](C)c4c(Cl)ccc(F)c4Cl)c(N)ncc23)CC1` [Example 12, 1-(4-{6-Amino-7-[(R)-1-(2,6-dichloro-3-fluorophenyl)-ethoxy]-furo[3,2-c]pyridin-3-yl}-3,6-dihydro-2H-pyridin-1-yl)-ethanone], the IC50 lay in the range of 0.5 to 5 µM.

In general, IC50 refers to the midpoint of a concentration-inhibition curve.
